Laboratory results: the supplement of paper PMC10307832

Compound: O=C1NC(=O)[C@@H](c2cn3c4c(cccc24)CCC3)[C@@H]1c1c[nH]c2ccccc12 [Tivantinib]
Assay: relative viability (nuclei count vs DMSO), 5 days (fraction); higher = more cells survive
Conditions: 0.3162 µM
Method in brief: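 Viability here means nuclei in treated wells divided by nuclei in vehicle wells, reported as the median across plates. Only plates with control CV below 25% and at least one doubling passed. Lung cancer cell lines in 1536-well plates were exposed to five √10-spaced library-drug doses for 5 days and counted from 4× Hoechst images in MetaXpress.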

For PC-3 [JPC-3], the relative viability was 0.697.

Compound: CC1(COc2ccc3c(c2)ncn3-c2ccc3cccc(N4CCC(N)CC4)c3n2)COC1 [Crenolanib] + CS(=O)(=O)N1CCN(Cc2cc3nc(-c4cccc5[nH]ncc45)nc(N4CCOCC4)c3s2)CC1 [Pictilisib] (partner 1 µM)
Assay: relative viability (nuclei count vs DMSO), 5 days (fraction); higher = more cells survive
Conditions: first compound 0.01 µM
Method in brief: (§1)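 Dosing by pin tool came one day after lung cancer cell lines were seeded in 1536-well plates, using either one drug or a fixed anchor-drug dose plus five library-drug doses (not always all listed) in √10 steps. After 5 days, nuclei were counted on 4× images. Relative viability is treated-well nuclei count divided by vehicle-well nuclei count, and values are medians of duplicate plates.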

First: NCI-H2347
Second: NCI-H1355
The relative viability of the first is higher: 0.55 for the first, 0.459 for the second.

Compared with NCI-H650, CAL-12T is lower in relative viability: 0.9 for the first, 0.45 for the second.

First: NCI-H1666
Second: H3255
The relative viability of the first is higher: 0.605 for the first, 0.461 for the second.

Going from NCI-H23 to NCI-H1915, the relative viability rises from 0.482 to 0.871.

First: NCI-H1437
Second: NCI-H322M
The relative viability of the first is higher: 0.548 for the first, 0.519 for the second.

Going from NCI-H1563 to NCI-H1792, the relative viability falls from 0.608 to 0.32.

First: NCI-H2085
Second: HCC-366
The relative viability of the first is higher: 0.45 for the first, 0.182 for the second.

Compared with NCI-H1793, PC-3 [JPC-3] is higher in relative viability: 0.302 for the first, 0.736 for the second.

Same assay, conditions: first compound 0.03162 µM

Going from NCI-H2347 to NCI-H1355, the relative viability falls from 0.625 to 0.48.

Compared with NCI-H650, CAL-12T is lower in relative viability: 0.806 for the first, 0.407 for the second.

First: NCI-H1666
Second: H3255
The relative viability of the first is lower: 0.352 for the first, 0.475 for the second.

First: NCI-H23
Second: NCI-H1915
The relative viability of the first is lower: 0.484 for the first, 0.957 for the second.

Going from NCI-H1437 to NCI-H322M, the relative viability falls from 0.517 to 0.499.

First: NCI-H1563
Second: NCI-H1792
The relative viability of the first is higher: 0.633 for the first, 0.34 for the second.

Going from NCI-H2085 to HCC-366, the relative viability falls from 0.412 to 0.164.

Compared with NCI-H1793, PC-3 [JPC-3] is higher in relative viability: 0.315 for the first, 0.635 for the second.

Same assay, conditions: first compound 0.1 µM

Going from NCI-H2347 to NCI-H1355, the relative viability falls from 0.464 to 0.436.

Going from NCI-H650 to CAL-12T, the relative viability falls from 0.901 to 0.519.

First: NCI-H1666
Second: H3255
The relative viability of the first is lower: 0.401 for the first, 0.479 for the second.

Compared with NCI-H23, NCI-H1915 is higher in relative viability: 0.399 for the first, 0.932 for the second.

First: NCI-H1437
Second: NCI-H322M
The relative viability of the first is higher: 0.549 for the first, 0.527 for the second.

Going from NCI-H1563 to NCI-H1792, the relative viability falls from 0.693 to 0.29.

Going from NCI-H2085 to HCC-366, the relative viability falls from 0.481 to 0.132.

Compared with NCI-H1793, PC-3 [JPC-3] is higher in relative viability: 0.322 for the first, 0.746 for the second.

Same assay, conditions: first compound 0.3162 µM

Going from NCI-H2347 to NCI-H1355, the relative viability falls from 0.845 to 0.402.

First: NCI-H650
Second: CAL-12T
The relative viability of the first is higher: 0.801 for the first, 0.454 for the second.

First: NCI-H1666
Second: H3255
The relative viability of the first is lower: 0.406 for the first, 0.559 for the second.

First: NCI-H23
Second: NCI-H1915
The relative viability of the first is lower: 0.487 for the first, 0.915 for the second.

Going from NCI-H1437 to NCI-H322M, the relative viability rises from 0.495 to 0.517.

First: NCI-H1563
Second: NCI-H1792
The relative viability of the first is higher: 0.652 for the first, 0.269 for the second.

Compared with NCI-H2085, HCC-366 is lower in relative viability: 0.469 for the first, 0.143 for the second.

First: NCI-H1793
Second: PC-3 [JPC-3]
The relative viability of the first is lower: 0.312 for the first, 0.695 for the second.

Same assay, conditions: first compound 1 µM

First: NCI-H2347
Second: NCI-H1355
The relative viability of the first is higher: 0.561 for the first, 0.389 for the second.

First: NCI-H650
Second: CAL-12T
The relative viability of the first is higher: 0.83 for the first, 0.44 for the second.

Going from NCI-H1666 to H3255, the relative viability rises from 0.411 to 0.496.

Going from NCI-H23 to NCI-H1915, the relative viability rises from 0.351 to 0.586.

Compared with NCI-H1437, NCI-H322M is lower in relative viability: 0.571 for the first, 0.493 for the second.

Going from NCI-H1563 to NCI-H1792, the relative viability falls from 0.59 to 0.195.

Compared with NCI-H2085, HCC-366 is lower in relative viability: 0.5 for the first, 0.137 for the second.

Going from NCI-H1793 to PC-3 [JPC-3], the relative viability rises from 0.385 to 0.703.

Compound: O=C1NC(=O)[C@@H](c2cn3c4c(cccc24)CCC3)[C@@H]1c1c[nH]c2ccccc12 [Tivantinib] + CS(=O)(=O)CCNCc1ccc(-c2ccc3ncnc(Nc4ccc(OCc5cccc(F)c5)c(Cl)c4)c3c2)o1 [Lapatinib] (partner 2 µM)
Assay: as above
Conditions: first compound 0.01 µM
Method in brief: as §1

Going from NCI-H2347 to NCI-H1355, the relative viability rises from 0.891 to 1.04.

Going from NCI-H650 to CAL-12T, the relative viability falls from 0.907 to 0.723.

Going from NCI-H1666 to H3255, the relative viability falls from 0.743 to 0.275.

First: NCI-H23
Second: NCI-H1915
The relative viability of the first is higher: 1.05 for the first, 0.95 for the second.

Going from NCI-H1437 to NCI-H322M, the relative viability falls from 0.797 to 0.568.

First: NCI-H1563
Second: NCI-H1792
The relative viability of the first is higher: 1.05 for the first, 0.91 for the second.

First: NCI-H2085
Second: HCC-366
The relative viability of the first is lower: 0.824 for the first, 0.89 for the second.

Compared with NCI-H1793, PC-3 [JPC-3] is lower in relative viability: 0.836 for the first, 0.433 for the second.

Same assay, conditions: first compound 0.03162 µM

Going from NCI-H2347 to NCI-H1355, the relative viability rises from 0.923 to 0.928.

Going from CAL-12T to NCI-H1666, the relative viability falls from 0.62 to 0.609.

First: H3255
Second: NCI-H23
The relative viability of the first is lower: 0.234 for the first, 1.22 for the second.

Going from NCI-H1915 to NCI-H1437, the relative viability falls from 0.985 to 0.635.

First: NCI-H322M
Second: NCI-H1563
The relative viability of the first is lower: 0.488 for the first, 0.894 for the second.

First: NCI-H1792
Second: NCI-H2085
The relative viability of the first is higher: 0.939 for the first, 0.77 for the second.

Going from HCC-366 to NCI-H1793, the relative viability falls from 1.03 to 0.735.

PC-3 [JPC-3] was tested, and the relative viability was 0.546.

Same assay, conditions: first compound 0.1 µM

Compared with NCI-H2347, NCI-H1355 is lower in relative viability: 0.956 for the first, 0.899 for the second.

First: NCI-H650
Second: CAL-12T
The relative viability of the first is higher: 1.02 for the first, 0.644 for the second.

Going from NCI-H1666 to H3255, the relative viability falls from 0.574 to 0.294.

First: NCI-H23
Second: NCI-H1915
The relative viability of the first is higher: 1.03 for the first, 1 for the second.

Going from NCI-H1437 to NCI-H322M, the relative viability falls from 0.691 to 0.609.

Compared with NCI-H1563, NCI-H1792 is lower in relative viability: 0.831 for the first, 0.822 for the second.

Going from NCI-H2085 to HCC-366, the relative viability rises from 0.765 to 0.99.

First: NCI-H1793
Second: PC-3 [JPC-3]
The relative viability of the first is higher: 0.651 for the first, 0.424 for the second.

Same assay, conditions: first compound 0.3162 µM

Going from NCI-H2347 to NCI-H1355, the relative viability rises from 1 to 1.09.

Going from NCI-H650 to CAL-12T, the relative viability falls from 0.964 to 0.424.

First: NCI-H1666
Second: NCI-H23
The relative viability of the first is lower: 0.574 for the first, 1.18 for the second.

First: NCI-H1915
Second: NCI-H1437
The relative viability of the first is higher: 0.996 for the first, 0.795 for the second.

First: NCI-H322M
Second: NCI-H1563
The relative viability of the first is lower: 0.588 for the first, 0.908 for the second.

Compared with NCI-H1792, NCI-H2085 is lower in relative viability: 0.964 for the first, 0.82 for the second.

Going from HCC-366 to PC-3 [JPC-3], the relative viability falls from 1.03 to 0.486.
